Values of other authors as cited in patent publication US20030118473A1, “Method and apparatus for ozone decontamination of biological liquids” (priority 2001, published 2003).

Test system: hepatitis C infection
Settings: preliminary research on hepatitis C infection; ozone therapy

O=[O+][O-] [ozone, Ozone]
effect on hepatic enzymes (SGOT, SGPT, alkaline phosphatase): significantly normalize hepatic enzymes
